From US7842711B2, “Indazolecarboxamide derivatives for the treatment and prevention of malaria” (Sanofi-Aventis, priority 2004, dated 2010)
Where a name gives a salt, the structure may show the parent alone. Read-outs that look alike come from different tables or passages of the source.

Experiments:
[1] = tested on: P. falciparum strain FcM29 (highly resistant to chloroquine); assay: antimalarial activity assay, radioactive micromethod of Desjardins (tritiated hypoxanthine incorporation), strain FcM29; assay type: cell-based; conditions: Plasmodium falciparum, Erythrocyte, read-out: IC50 (concentration of the compound required to inhibit the parasite growth by 50%)
Description: Two strains of P. falciparum are used, the origin of which is Colombia (FcB1, strain moderately resistant to chloroquine) and Cameroon (FcM29, strain highly resistant to chloroquine). These strains of P. falciparum are cultured continuously in human red blood cells according to the method of Trager and Jensen (W. Trager, J. Jensen, Science, 1976, 193, 673-675): the parasites are maintained in human red blood cells (O±), diluted to 2% parasiteamia in an RPMI 1640 medium supplemented with 25 mM of Hepes, 24 mM of NaHCO3 and 2 mM of L-glutamine, and supplemented with 5% of human serum of all groups. The parasites are incubated at 37° C. in a humid atmosphere and at 5% CO2.
The antimalarial activity assays are carried out according to the radioactive micromethod of Desjardins (R. E. Desjardins, C. J. Canfield, J. D. Haynes, J. D. Chulay, Antimicrob. Agents Chemother., 1979, 16, 710-718). Each molecule is tested in triplicate. The assays are carried out in 96-well microplates. The strains of P. falciparum are cultured in solutions of RPMI 1640 supplemented with 5% of human serum with a 2% haematocrit and a 1.5% parasitaemia. For each assay, the parasites are incubated with decreasing concentrations of compounds of formula (I) for 48 h at 37° C. in a humid atmosphere and at 5% CO2.
The first dilution of the test compound is prepared at 1 mg/ml in dimethyl sulphoxide. The dilution range for the successive daughter solutions is also prepared in dimethyl sulphoxide. Each daughter dilution is subsequently diluted to 1/50 in RPMI 1640 supplemented with 5% of human serum, all the dilutions being prepared at 37° C. These dilutions are then added to the parasites in culture in the microplates. After addition of the test compound, the parasites are in culture in RPMI 1640 containing 5% of human serum and 1% of dimethyl sulphoxide. The parasite growth is measured by the incorporation of tritiated hypoxanthine (added 24 h after the beginning of exposure to the test compound) compared with incorporation in the absence of the test compound (taken as 100%). The IC50 values (concentration of the compound required to inhibit the parasite growth by 50%) are determined by plotting the percentage inhibition as a function of the log of the dose by means of the GraphPad Prism 4® processing software (GraphPad software, Inc., 5755 Oberlin Drive, # 110, San Diego, Calif. 92121, USA).

[2] = strain FcM29, 48 h incubation in human red blood cells, tritiated hypoxanthine incorporation

For `O=C(Nc1ccncc1)c1n[nH]c2ccc(-c3cncc4ccccc34)cc12` [Compound No. 3, N-(Pyridin-4-yl)-5-isoquinolin-4-yl-1H-indazole-3-carboxamide], the IC50 [1, 2] was 600 nM and the melting point was > 250 °C.

With `O=C(Nc1ccncc1)c1n[nH]c2ccc(-c3ccc(Cl)nc3)cc12` [compound 12, 5-(6-chloropyridin-3-yl)-N-pyridin-4-yl-1H-indazole-3-carboxamide] the IC50 [1, 2] was 800 nM and the melting point was > 250 °C.

Work on `CCNCc1cccc(NC(=O)c2n[nH]c3ccc(-c4cncc5ccccc45)cc23)c1` [Compound No. 14, N-{3-[(Ethylamino)methyl]phenyl}-5-isoquinolin-4-yl-1H-indazole-3-carboxamide dihydrochloride] yielded an IC50 ([1]; 48 h) of 272 nM.

For `O=C(Nc1ccncc1)c1n[nH]c2ccc(-c3cn[nH]c3)cc12` [Compound No. 11, 5-(1H-Pyrazol-4-yl)-N-(pyridin-4-yl)-1H-indazole-3-carboxamide], the IC50 [1, 2] was 800 nM and the melting point was > 250 °C.

In the case of `CCNCc1cccc(NC(=O)c2n[nH]c3ccc(-c4cncc5ccccc45)cc23)c1` (as salt: HCl) [Compound No. 14, N-{3-[(Ethylamino)methyl]phenyl}-5-isoquinolin-4-yl-1H-indazole-3-carboxamide dihydrochloride], the melting point is reported as > 135 °C.

In the case of `CCNCc1cccc(NC(=O)c2n[nH]c3ccc(-c4cncc5[nH]ccc45)cc23)c1` [compound 21, N-{3-[(ethylamino)methyl]phenyl}-5-(1H-pyrrolo[2,3-c]pyridin-4-yl)-1H-indazole-3-carboxamide], the IC50 [1, 2] is reported as 406 nM and the melting point is reported as > 250 °C.

In the case of `O=C(Nc1ccncc1)c1n[nH]c2ccc(-c3cncc4[nH]ccc34)cc12` [Compound No. 10, N-(Pyridin-4-yl)-5-(1H-pyrrolo[2,3-c]pyridin-4-yl)-1H-indazole-3-carboxamide], the IC50 [1, 2] is reported as 130 nM and the melting point is reported as > 250 °C.
